Measured values: PMC5876368, “Evaluation of a dimeric-cRGD peptide for targeted PET-CT imaging of peripheral angiogenesis in diabetic mice” (Scientific Reports, 2018)

Key:
[1] = target: T1, αV β3 integrin (Mus musculus, UniProt O54890+P43406); experiment: PET-CT imaging and gamma well counting of hindlimb uptake after femoral artery ligation, DM vs non-DM mice; type: in vivo; details: mice 1 week after femoral artery ligation
T1 construct: from tissue; host or cells: hindlimb skeletal muscle of live C57BL/6 mice (ischemic and non-ischemic, DM and non-DM)
T1 sequence (P43406 31-885 limits assumed): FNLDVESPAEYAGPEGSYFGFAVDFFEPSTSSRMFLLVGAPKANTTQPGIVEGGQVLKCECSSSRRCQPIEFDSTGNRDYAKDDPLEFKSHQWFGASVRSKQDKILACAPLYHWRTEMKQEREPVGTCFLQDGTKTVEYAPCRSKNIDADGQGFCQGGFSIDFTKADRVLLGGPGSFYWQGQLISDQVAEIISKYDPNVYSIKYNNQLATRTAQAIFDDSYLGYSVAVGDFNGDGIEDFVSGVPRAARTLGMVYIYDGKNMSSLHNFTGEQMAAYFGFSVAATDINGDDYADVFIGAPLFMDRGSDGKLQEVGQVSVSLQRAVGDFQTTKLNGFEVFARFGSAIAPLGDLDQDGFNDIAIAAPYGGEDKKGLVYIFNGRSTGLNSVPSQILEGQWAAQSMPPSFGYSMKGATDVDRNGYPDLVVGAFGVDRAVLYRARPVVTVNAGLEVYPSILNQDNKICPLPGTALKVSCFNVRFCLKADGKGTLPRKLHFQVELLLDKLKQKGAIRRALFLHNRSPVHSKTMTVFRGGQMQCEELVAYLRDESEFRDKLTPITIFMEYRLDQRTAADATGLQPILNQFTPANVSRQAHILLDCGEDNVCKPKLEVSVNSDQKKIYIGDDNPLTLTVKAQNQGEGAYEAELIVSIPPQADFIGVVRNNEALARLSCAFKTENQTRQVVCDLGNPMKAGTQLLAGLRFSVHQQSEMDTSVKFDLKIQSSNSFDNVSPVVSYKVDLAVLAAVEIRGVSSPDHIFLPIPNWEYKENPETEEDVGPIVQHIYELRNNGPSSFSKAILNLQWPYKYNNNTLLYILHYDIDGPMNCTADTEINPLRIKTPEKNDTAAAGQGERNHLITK
T1 sequence (P43406 887-1044 partner limits assumed): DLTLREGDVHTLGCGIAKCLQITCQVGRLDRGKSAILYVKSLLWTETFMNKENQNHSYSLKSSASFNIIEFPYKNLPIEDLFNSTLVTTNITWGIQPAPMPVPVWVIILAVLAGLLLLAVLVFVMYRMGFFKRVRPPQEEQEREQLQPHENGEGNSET
T1 sequence (O54890 26-787): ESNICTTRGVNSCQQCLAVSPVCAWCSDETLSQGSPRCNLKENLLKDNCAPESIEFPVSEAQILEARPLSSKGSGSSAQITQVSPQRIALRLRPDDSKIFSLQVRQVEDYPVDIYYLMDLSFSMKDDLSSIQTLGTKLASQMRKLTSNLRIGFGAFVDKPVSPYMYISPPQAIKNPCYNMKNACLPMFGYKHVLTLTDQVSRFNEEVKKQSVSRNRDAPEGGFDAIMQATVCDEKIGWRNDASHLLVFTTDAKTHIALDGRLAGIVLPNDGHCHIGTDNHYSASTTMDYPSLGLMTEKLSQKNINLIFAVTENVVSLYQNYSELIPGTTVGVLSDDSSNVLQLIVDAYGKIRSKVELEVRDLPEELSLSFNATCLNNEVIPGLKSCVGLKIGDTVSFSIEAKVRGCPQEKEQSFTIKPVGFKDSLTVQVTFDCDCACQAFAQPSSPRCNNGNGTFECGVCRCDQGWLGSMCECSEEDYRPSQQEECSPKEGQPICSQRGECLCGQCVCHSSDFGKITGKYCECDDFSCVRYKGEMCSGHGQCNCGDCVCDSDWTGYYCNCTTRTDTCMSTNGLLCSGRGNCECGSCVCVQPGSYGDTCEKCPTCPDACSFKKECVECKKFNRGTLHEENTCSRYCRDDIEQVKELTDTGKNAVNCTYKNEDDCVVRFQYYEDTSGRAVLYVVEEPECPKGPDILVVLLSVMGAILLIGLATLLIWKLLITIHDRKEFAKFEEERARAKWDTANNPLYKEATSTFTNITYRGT
Procedure: All animals underwent hindlimb occlusion of the right femoral artery and a sham operation on the left hindlimb, following previously-described procedures. Briefly, a small incision was made on the right leg to expose the femoral vasculature, and dual ligation of the femoral artery was performed distal to the profundus branch to induce unilateral hindlimb ischemia. All mice were allowed to recover for 7 days after surgery.
One week after occlusion, DM and non-DM mice (n = 15) were injected with 6.81 ± 0.536 MBq of ^64Cu-NOTA-PEG4-cRGD2 via the jugular vein and 60 minutes later in vivo microPET-CT imaging was performed using a small animal dedicated Inveon system (Siemens Healthcare USA). An additional group of non-diabetic mice (n = 4) was injected with 7.21 ± 2.31 MBq of ^64Cu-acetate to study differential organ biodistribution of ^64Cu-NOTA-PEG4-cRGD2. […]
The microPET and microCT images were reconstructed using the OSEM/3D algorithm (Siemens Healthcare USA) and the cone-beam technique (Cobra Exim), respectively. MicroPET images were fused with microCT images and quantified using a semiautomated approach developed and evaluated previously. […] To validate the accuracy of the quantitative targeted imaging approach, image-derived results were compared with the gamma well counting analysis of the corresponding tissue samples. […]

[2] = Biodistribution and clearance in mice (gamma well counting and PET-CT); type: in vivo; details: one hour after jugular vein injection, gamma well counting
Procedure: One week after occlusion, 5 groups of animals were injected with 6.81 ± 0.536 MBq of ^64Cu-NOTA-PEG4-cRGD2 via the jugular vein and at various time points (30 min n = 3, 1 hr n = 3, 2 hr n = 3, 4 hr n = 3, and 24 hr n = 2), different organs were excised and subjected to gamma well counting. The mass and radioactivity of tissue sections were assessed with a Voyager Pro. (Ohaus, USA) and Wizard2 gamma well counter (PerkinElmer, USA) respectively. The ^64Cu signal was then corrected to account for background radioactivity, radioactive decay of the samples, and tissue weight.
One week after occlusion, DM and non-DM mice (n = 15) were injected with 6.81 ± 0.536 MBq of ^64Cu-NOTA-PEG4-cRGD2 via the jugular vein and 60 minutes later in vivo microPET-CT imaging was performed using a small animal dedicated Inveon system (Siemens Healthcare USA). […]
Skeletal muscles from both the ischemic and non-ischemic hindlimbs were excised and separated into distal and proximal sections based on the location of the ligature in the ischemic limb and anatomical landmarks in the non-ischemic limb. The mass and radioactivity of tissue sections were assessed with a Voyager Pro. […] The ^64Cu signal was then corrected to account for background radioactivity, radioactive decay of the samples, and tissue weight.

## CC(=O)[O-].CC(=O)[O-].[64Cu+2] [^64Cu-acetate]
[1]
  retention in ischemic relative to non-ischemic hindlimb: comparable accumulation in both limbs
[2]
  organ uptake in liver, gallbladder, kidneys and intestines: > 20 %I.D./g
